Seven compounds from patent US12655127B2, “Fused ring compound as Wee-1 inhibitor” (WIGEN BIOMEDICINE TECHNOLOGY (SHANGHAI) CO., LTD., priority 2021, dated 2026) can be followed below.

SMILES strings stand for the structures.

Assay [1] relates to MIA PaCa-2 cells. In words: In-vitro anti-proliferative activity in combination with gemcitabine on MIA PaCa-2 cells. The class given is cell-based. Particulars: with 20 nM gemcitabine, 72 h after dosing, intracellular ATP content. The procedure: MIA PaCa-2 cells were seeded on a 384-well plate at 3000 cells/well, and 20 nM gemcitabine was added. After overnight adherence culture, DMSO or the compounds serially diluted 1:5 from 100 nM were added. The viability was assessed 72 h after dosing by measuring the intracellular ATP content. The inhibition percentage of viable cells by the compounds was calculated by comparing with the DMSO group, and the IC50 value was calculated.

Assay [2] deals with MIA PaCa-2 cells. In words: In-vitro anti-proliferative activity on MIA PaCa-2 cells. It counts as cell-based. Particulars: Homo sapiens, 72 h after dosing, intracellular ATP content. The protocol: MIA PaCa-2 cells were seeded on a 384-well plate at 3000 cells/well. After overnight adherence culture, DMSO or the compounds serially diluted 1:5 from 5 μM were added. The viability was assessed 72 h after dosing by measuring the intracellular ATP content. The inhibition percentage of viable cells by the compounds was calculated by comparing with the DMSO group, and the IC50 value was calculated.

In assay [3] the target is recombinant protein Wee-1 (Homo sapiens, UniProt P30291). In words: Inhibition of enzymatic activity of recombinant protein Wee-1 (HTRF). It counts as biochemical. In outline: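 Serially diluted compounds (up to 200 nM, 1:5) preincubated with recombinant Wee-1 in kinase buffer 30 min at 37° C, then Fluorescein-PolyGAT, ATP and substrate added; 90 min at room temperature. HTRF detection after 60 min (ex 340 nm, em 495/520 nm); 520/495 ratio versus DMSO gave % inhibition and IC50.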
Background: TR-FRET usually uses a lanthanide donor and a delayed reading to cut background.

Assay [4] has as its system HT29 subcutaneous xenograft tumor. Description: Mouse HT29 subcutaneous xenograft tumor model. Particulars: for TGI: day 18, nude mouse HT29 xenograft; for Tumor volume on day 1 of treatment (mm^3) / Tumor volume on day 18 of treatment (mm^3): nude mouse HT29 xenograft. It counts as in vivo. The procedure: HT29 is a colon cancer cell. Each nude mouse was grafted subcutaneously with 5×10^6 HT29 cells. When the tumor grew to 100-200 mm^3, the compound was administered orally once a day alone or in combination with 15 mg/kg of gemcitabine injected intraperitoneally once a week, and the tumor volume was measured twice a week and at the end of treatment. Tumor growth inhibition of the compound was calculated according to the following equation: tumor growth inhibition (TGI)=1−(tumor volume on day 18 in treatment group−tumor volume on day 1 in treatment group)/(tumor volume on day 18 in vehicle control group−tumor volume on day 1 in treatment group).

[5] abbreviates: 30 mg/kg orally once a day in combination with 15 mg/kg of gemcitabine i.p. once a week.
The mark [6] stands for this setting: monotherapy, 30 mg/kg orally once a day.
The mark [7] stands for this setting: gemcitabine 15 mg/kg intraperitoneally once a week.

Chain of recombinant protein Wee-1 (P30291 whole entry): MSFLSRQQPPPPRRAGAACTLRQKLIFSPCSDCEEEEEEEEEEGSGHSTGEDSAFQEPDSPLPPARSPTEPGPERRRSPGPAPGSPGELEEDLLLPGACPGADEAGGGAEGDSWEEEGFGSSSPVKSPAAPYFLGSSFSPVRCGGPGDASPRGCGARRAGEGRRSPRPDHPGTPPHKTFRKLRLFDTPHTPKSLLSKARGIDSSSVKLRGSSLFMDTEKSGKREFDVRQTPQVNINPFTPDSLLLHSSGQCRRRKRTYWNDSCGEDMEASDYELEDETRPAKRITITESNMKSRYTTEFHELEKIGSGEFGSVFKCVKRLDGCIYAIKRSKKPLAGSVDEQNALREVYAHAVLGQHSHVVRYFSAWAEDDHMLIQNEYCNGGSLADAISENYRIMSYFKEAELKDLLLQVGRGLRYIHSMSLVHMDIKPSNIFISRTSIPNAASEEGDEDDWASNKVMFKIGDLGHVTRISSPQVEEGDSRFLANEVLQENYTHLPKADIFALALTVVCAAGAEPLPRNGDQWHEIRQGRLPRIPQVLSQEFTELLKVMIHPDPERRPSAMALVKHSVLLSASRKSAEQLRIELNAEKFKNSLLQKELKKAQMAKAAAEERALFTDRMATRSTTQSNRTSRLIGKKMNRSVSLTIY

What is called IC50 is the concentration at which inhibition is half-maximal. For `CN1Cc2cc(Nc3ncc(C#N)c(Nc4cccc(N=S(C)(C)=O)n4)n3)cc3c2[C@H](CCC3)C1` (single isomer, unassigned) [Compound 2], the figures for the concentration for half-maximal inhibition (IC50) (with MIA PaCa-2 cells [1]; in the assay with MIA PaCa-2 cells [2]; in assay [3]) were 0.245 nM, 259 nM and not above 10 nM, respectively. The results for the TGI in assay [4] (setting [5]) and in assay [4] (setting [6]) were 109% and 99%, respectively. For the same compound, the “Tumor volume on day 1 of treatment (mm^3)” value in assay [4] (setting [5]) and in assay [4] (setting [6]) was 112 mm^3 each time. In addition, the “Tumor volume on day 18 of treatment (mm^3)” value in assay [4] (setting [5]) was determined as 11 mm^3; in assay [4] (setting [6]), 115 mm^3.
Turning to `CN1Cc2cc(Nc3ncc(C#N)c(Nc4nc(N=S(C)(C)=O)ccc4F)n3)cc3c2C(CCC3)C1` (stereo not drawn) [Compound 112], the values for the IC50 (in the assay with MIA PaCa-2 cells [1]; in the assay on MIA PaCa-2 cells [2]; in assay [3]) were 29 nM, more than 5000 nM and not above 10 nM, respectively.
As for `COc1ccc(Nc2nc(Nc3cc4c5c(c3)CN(C)CC5CCC4)ncc2C#N)nc1N=S(C)(C)=O` (stereo not drawn) [Compound 121], the half-inhibitory concentration (IC50) in the assay with MIA PaCa-2 cells [1] was 1.4 nM; in the assay with MIA PaCa-2 cells [2], 89 nM; in assay [3] it was not above 10 nM.
With `CN1Cc2cc(Nc3ncc(C#N)c(Nc4cccc(P(C)(C)=O)n4)n3)cc3c2C(CCC3)C1` (stereo not drawn) [Compound 137], the IC50 in the assay on MIA PaCa-2 cells [1] was 26 nM; in the assay on MIA PaCa-2 cells [2], more than 5000 nM; in assay [3] it was not above 10 nM.
For the compound `Cc1ccc(Nc2nc(Nc3cc4c5c(c3)CN(C)CC5CCC4)ncc2C#N)nc1N=S(C)(C)=O` (stereo not drawn) [Compound 295], the IC50 in the assay on MIA PaCa-2 cells [1] is 1.5 nM; with MIA PaCa-2 cells [2], 72 nM; in assay [3], not above 10 nM.
For `CN1Cc2cc(Nc3ncc(C#N)c(Nc4ccc(Cl)c(N=S(C)(C)=O)n4)n3)cc3c2C(CCC3)C1` (stereo not drawn) [Compound 296], the IC50 in the assay with MIA PaCa-2 cells [1] is 3.1 nM; with MIA PaCa-2 cells [2], 161 nM; in assay [3] it was not above 10 nM.
For `Nc1ccn([C@@H]2O[C@H](CO)[C@@H](O)C2(F)F)c(=O)n1` [Gemcitabine, gemcitabine, reference compound], in assay [4] (setting [7]), the TGI is reported as 57%, the “Tumor volume on day 1 of treatment (mm^3)” value is given as 112 mm^3 and the “Tumor volume on day 18 of treatment (mm^3)” value came to 539 mm^3.
